Experimental data published in the Biogen ADME set (Fang et al. 2023).
Values after ≈ are worked out from the molar mass of the structure shown.

Settings: for aqueous solubility: pH 6.8

Compound	MDR1-MDCK efflux ratio	intrinsic clearance, human liver microsomes [mL/min/kg]	intrinsic clearance, rat liver microsomes [mL/min/kg]	aqueous solubility [µg/mL]	fraction unbound, human plasma	fraction unbound, rat plasma
CCCCC1=NC2(CCCC2)C(=O)N1Cc1ccc(-c2ccccc2-c2nn[nH]n2)cc1	148	10.7	151	37 (≈ 86.3 µM)	–	–
Cc1ccc([C@@H]2N[C@@H](Cc3ccccc3)C(=O)N2C)o1	0.764	≤ 4.74	151	53.3 (≈ 197 µM)	–	–
Cc1cc(C)nc(N(C)CC(=O)NC2CC2)n1	0.884	≤ 4.74	23.1	34.9 (≈ 149 µM)	–	–
COc1cn(-c2ccc(-n3cccn3)cc2F)nc(-c2ccnn2-c2ccccc2)c1=O	10.9	≤ 4.74	28.2	–	–	–
CCOCC(=O)Nc1cccc(CN2CCCC2)c1	2.31	15	501	–	–	–
CCN1CCC(Nc2nc(C)cc(C)c2C#N)CC1	1.24	6.73	2490	43.4 (≈ 168 µM)	–	–
CS(=O)(=O)NCCc1ccc2c(c1)OCCO2	–	–	–	32.2 (≈ 125 µM)	–	–
Cc1sc2ncn(Cc3c(F)cccc3Cl)c(=O)c2c1C	–	80	757	–	–	–
N#CCSCC(=O)NC1CCCCCC1	0.743	≤ 4.74	38.2	44.8 (≈ 198 µM)	–	–
Fc1cc(-c2noc(C3CCN(C4CC4)CC3)n2)cc(F)c1F	–	75	591	–	–	–
O=C(Nc1nc2ccccc2[nH]1)c1cc(-c2ccccc2)nc2ccccc12	–	–	–	0.45 (≈ 1.23 µM)	–	–
O=C(Nc1ccn(Cc2ccccn2)n1)c1c(F)cccc1I	2.85	≤ 4.74	132	61.2 (≈ 145 µM)	–	–
CC(=O)c1ccc2c(c1)CCN(CC1CCC3(CC1)OCCO3)CC2	0.556	≤ 4.74	229	–	–	–
Cn1nccc1CC1CCN(C2CCCC2)CC1	0.94	≤ 4.74	258	26.2 (≈ 106 µM)	–	–
Cc1ccc2c(CC(=O)N(C)Cc3nnc4n3CCC4)coc2c1C	66.1	36.5	651	54.5 (≈ 161 µM)	–	–
Cc1cccc(Nc2ccc(C3CCN(C(=O)c4cc5cc(F)ccc5n4C)CC3)nc2)n1	1.5	–	–	0.19 (≈ 0.428 µM)	–	–
COc1ccccc1N1CCN(c2nc(-c3ccc(C)cc3)cc(=O)[nH]2)CC1	1.75	–	–	0.2 (≈ 0.531 µM)	–	–
Nc1nc(N)c2nc(-c3cccc(O)c3)c(-c3cccc(O)c3)nc2n1	2.78	≤ 4.74	115	2.1 (≈ 6.06 µM)	–	–
C1CCC(OCc2noc(C3CC3)n2)CC1	0.884	34	372	16.2 (≈ 72.9 µM)	–	–
Fc1ccc(-c2cc(C3CCNCC3)ccn2)cc1	–	≤ 4.74	≤ 10.7	41 (≈ 160 µM)	–	–
CN(C(=O)CSC(C)(C)C)c1ccccc1C#N	0.808	47.3	687	–	–	–
COc1ccc(CN2CCN(C(=O)C3CCN(C(=O)C4CC4)CC3)CC2)cc1	7.58	≤ 4.74	50.4	–	–	–
Cc1ccc(-n2cc(C)cn2)c(NC(=O)CN(C)C)c1	0.559	120	436	–	–	–
CSc1ccc(CN(CCO)C(=O)CCc2cccc(F)c2)cc1	0.961	151	2520	29.1 (≈ 83.6 µM)	–	–
C=CC(=O)N1CCC(CNc2ncnc(N)c2-c2ccc(Oc3ccccc3)cc2)CC1	24.7	191	1450	10.1 (≈ 23.5 µM)	0.0566	0.0797
CCCn1cc(NC(=O)Nc2ccc(N3CCSCC3)cc2)cn1	7.18	44.4	808	–	–	–
COC(=O)[C@@H]1Cc2ncn(Cc3ccccc3)c2CN1C(C)=O	17.6	6.26	97.3	32.2 (≈ 103 µM)	–	–
Nc1c(-c2ccc(F)cc2)ncn1Cc1ccccc1	–	14.6	372	–	–	–
Cc1nc(C2CCN(Cc3ccc(C(F)(F)F)cc3)CC2)n[nH]1	–	6	14.1	–	–	–
